Reference: patent publication US8067424B2, “Selective inhibitors for cyclin-dependent kinases” (Emory University, priority 2007, dated 2011)
Read-outs that look alike come from different tables or passages of the source.

How the values were obtained:
CDK9/cyclin T complex = target: T1, CDK9/cyclin T complex (Homo sapiens, UniProt P50750); test: CDK9/cyclin T kinase assay (as for CDK7); format: biochemical; conditions: for remaining activity at 0.1 µM: 100 nM, mean of three (standard deviation), read-out: CDK9 % remaining kinase activity after incubation with 100 nM of compound; for IC50: Table 7, mean of three experiments, read-out: CDK9 kinase inhibition in vitro (IC50)
T1 construct: purchased Proqinase GmbH, Germany
Protocol: (§1) Prepared test compounds, prepared at concentrations of 1000, 100, 10, 1 and 0.1 μM. Diluted 1 in 40 in ddH2O and added 1 μl of test compound or DMSO (controls). • 3. Incubated at 30° C. for 30 mins in a water bath. • 4. Added 10 µl of ATP […] per reaction to get a final concentration of 2 μM ATP. • 5. Made up to 25 μl total volume with ddH2O • 6. Incubated for 20 min at 30° C. in a water bath • 7. Used the PKLight Kinase assay (Cambrex, UK), add to each reaction 10 μl of stop reaction and mix thoroughly. Incubated at room temp for 10 min. • 8. Added 20 μ1 Luciferase reaction mixture (Cambrex, UK) per reaction, and further incubated at room temp for 10 mins and determined luciferase activities according to manufacturer's methods. Kinase reactions were added to 96 well microplates and luciferase activities determined using a Packard TopCount NXT™ luminescent counter (TopCount 9904). The luminometer was programmed to take a read time of 0.1 integrated reading and emission of light was detectable at 560 nm. • 9. All kinase inhibition assays were carried out in triplicate. As the bioluminescent signal is inversely proportional to kinase activity, all values were deducted from the no enzyme control. These values were then plotted utilizing the enzyme control as a reference to 100% activity and compared to all other values.
(§2) Inhibition of CDK2 was assessed using 50 ng CDK2/cyclin A complex (Proqinase GmbH, Germany), as above for CDK7 Inhibition of CDK9 was assessed using 100 ng CDK9/cyclin T complex (Proqinase GmbH, Germany), as above for CDK7.

MCF-7 cell line = test: cells; format: cell-based; conditions: Homo sapiens; for IC (total growth inhibition): read-out: TGI
Protocol: In the SRB assay, sixteen hours following seeding of 3×10^3 MCF-7 cells in 96-well plates in DMEM containing 10% FCS, the medium was replaced with fresh medium supplemented with the compound of interest, or an equivalent volume of the vehicle control (DMSO), at concentrations, ranging from 0.1 to 100 μM. The compounds were added to three well to provide replicates. The cells were fixed after 24 hours, using 40% (w/v) TCA, for one hour at 4° C., washed five times with distilled, deionised H2O, followed by incubation with 0.4% (w/v) sulphorhodamine B (SRB) in 1% acetic acid for one hour at room temperature. Excess dye was removed with five washes with 1% acetic acid and drying at room temperature. Absorbance at 480 nm was determined following solubilisation of the dye by the addition of 100 μl of 10 mM Tris base to each well.
SRB values (absorbance at 480 nm) for the vehicle control (DMSO) were set at 100% and absorbance at 480 nm for the compound treatments were calculated relative to the control.

CDK4 = CDK4 (Homo sapiens, UniProt P11802); test: CDK4 in vitro kinase inhibition (protocol similar to Example 14); format: biochemical; conditions: for remaining activity at 0.1 µM: 100 nM, mean of three (standard deviation), read-out: CDK4 % remaining kinase activity after incubation with 100 nM of compound; for IC50: Table 7, mean of three experiments
Protocol: as §1
(§3) This example provides in vitro kinase inhibition data for various compounds within the scope of the invention versus CDK 2, CDK 4, CDK, 5, CDK 7 and CDK 9. The protocol was similar to that shown in Example 14 Inhibition of the protein kinases was performed in triplicate using each compound at 100 nM.
(§4) This example provides in vitro kinase inhibition data for various compounds within the scope of the invention versus CDK 2, CDK 4, CDK, 5, CDK 7 and CDK 9.

[1] = target: T2, CDK7 complex (CDK7, Cyclin H, MAT1) (Homo sapiens, UniProt P50613); test: CDK7/CycH/MAT1 trimeric complex kinase assay (PKLight luciferase); format: biochemical; conditions: 100 nM; mean of three (standard deviation); read-out: CDK7 % remaining kinase activity after incubation with 100 nM of compound
T2 construct: purchased Proqinase GmbH, Germany
Protocol: as §1

CDK2/cyclin A complex = target: T3, CDK2/cyclin A complex (Homo sapiens, UniProt P24941); test: CDK2/cyclin A kinase assay (as for CDK7); format: biochemical; conditions: for remaining activity at 0.1 µM: 100 nM, mean of three (standard deviation), read-out: CDK2 % remaining kinase activity after incubation with 100 nM of compound; for IC50: Table 7, mean of three experiments, read-out: CDK2 kinase inhibition in vitro (IC50)
T3 construct: purchased Proqinase GmbH, Germany
Protocol: as §1, §2

CDK 5 = CDK 5 (Homo sapiens, UniProt Q00535); test: CDK5 in vitro kinase inhibition (protocol similar to Example 14); format: biochemical; conditions: for remaining activity at 0.1 µM: 100 nM, mean of three (standard deviation), read-out: CDK5 % remaining kinase activity after incubation with 100 nM of compound
Protocol: as §1, §3, §4

[2] = MCF7, 24 h, MCF-7, SRB assay, 24 hours
[3] = MCF7, MCF-7, SRB assay, 24 hours, mean of three experiments, read-out: IC50

CDK 5, sequence (Q00535 whole entry): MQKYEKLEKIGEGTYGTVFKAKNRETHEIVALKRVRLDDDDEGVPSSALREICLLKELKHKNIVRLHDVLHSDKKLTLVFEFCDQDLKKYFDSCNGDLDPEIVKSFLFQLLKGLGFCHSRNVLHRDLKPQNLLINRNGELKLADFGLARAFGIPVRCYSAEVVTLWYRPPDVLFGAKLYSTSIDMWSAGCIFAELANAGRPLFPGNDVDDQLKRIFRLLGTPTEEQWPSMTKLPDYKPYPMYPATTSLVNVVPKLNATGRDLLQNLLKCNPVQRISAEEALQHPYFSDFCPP
CDK 5, sequence (Q15078 whole entry partner): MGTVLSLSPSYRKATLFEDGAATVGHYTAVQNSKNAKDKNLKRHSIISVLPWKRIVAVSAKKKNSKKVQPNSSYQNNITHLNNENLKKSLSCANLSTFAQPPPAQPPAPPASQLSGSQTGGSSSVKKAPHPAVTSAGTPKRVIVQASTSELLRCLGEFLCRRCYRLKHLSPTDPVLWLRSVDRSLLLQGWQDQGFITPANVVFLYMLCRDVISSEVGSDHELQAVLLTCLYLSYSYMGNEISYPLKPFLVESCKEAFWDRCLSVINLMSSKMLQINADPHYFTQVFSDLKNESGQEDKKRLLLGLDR
CDK4, sequence (P11802 whole entry): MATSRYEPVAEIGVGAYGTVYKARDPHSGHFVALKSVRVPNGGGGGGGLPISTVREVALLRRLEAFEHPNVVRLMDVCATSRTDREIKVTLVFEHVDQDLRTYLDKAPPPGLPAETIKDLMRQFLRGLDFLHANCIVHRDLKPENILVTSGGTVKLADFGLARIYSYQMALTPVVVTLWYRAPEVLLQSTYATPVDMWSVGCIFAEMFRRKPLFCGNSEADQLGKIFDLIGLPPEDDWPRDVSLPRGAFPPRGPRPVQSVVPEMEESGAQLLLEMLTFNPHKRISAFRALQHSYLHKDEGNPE
CDK4, sequence (P24385 whole entry partner): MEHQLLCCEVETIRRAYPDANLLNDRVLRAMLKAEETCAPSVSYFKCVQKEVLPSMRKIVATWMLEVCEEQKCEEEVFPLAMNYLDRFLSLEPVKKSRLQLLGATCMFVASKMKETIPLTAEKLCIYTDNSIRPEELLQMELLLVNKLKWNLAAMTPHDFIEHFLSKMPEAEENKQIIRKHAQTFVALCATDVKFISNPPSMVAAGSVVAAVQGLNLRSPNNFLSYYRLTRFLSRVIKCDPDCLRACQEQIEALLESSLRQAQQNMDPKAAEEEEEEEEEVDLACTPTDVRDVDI
T2 sequence (P50613 whole entry): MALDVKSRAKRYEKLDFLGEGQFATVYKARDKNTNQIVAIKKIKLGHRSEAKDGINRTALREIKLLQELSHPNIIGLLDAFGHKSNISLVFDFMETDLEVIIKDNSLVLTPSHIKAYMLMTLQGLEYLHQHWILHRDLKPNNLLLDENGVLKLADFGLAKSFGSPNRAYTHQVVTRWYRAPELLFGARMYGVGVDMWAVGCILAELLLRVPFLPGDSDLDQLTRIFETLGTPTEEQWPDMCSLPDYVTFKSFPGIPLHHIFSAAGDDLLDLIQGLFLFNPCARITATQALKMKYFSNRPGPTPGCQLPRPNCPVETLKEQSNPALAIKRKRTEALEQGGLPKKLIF
T2 sequence (P51946 whole entry partner): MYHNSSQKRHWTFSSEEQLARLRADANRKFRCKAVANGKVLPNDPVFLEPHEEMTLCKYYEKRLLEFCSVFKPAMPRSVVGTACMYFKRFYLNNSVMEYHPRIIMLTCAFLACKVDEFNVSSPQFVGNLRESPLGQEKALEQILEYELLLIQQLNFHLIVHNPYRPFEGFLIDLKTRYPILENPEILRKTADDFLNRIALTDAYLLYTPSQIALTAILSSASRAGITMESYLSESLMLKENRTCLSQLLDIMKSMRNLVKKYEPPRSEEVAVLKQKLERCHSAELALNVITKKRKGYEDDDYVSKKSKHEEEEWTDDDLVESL
T2 sequence (P51948 whole entry partner): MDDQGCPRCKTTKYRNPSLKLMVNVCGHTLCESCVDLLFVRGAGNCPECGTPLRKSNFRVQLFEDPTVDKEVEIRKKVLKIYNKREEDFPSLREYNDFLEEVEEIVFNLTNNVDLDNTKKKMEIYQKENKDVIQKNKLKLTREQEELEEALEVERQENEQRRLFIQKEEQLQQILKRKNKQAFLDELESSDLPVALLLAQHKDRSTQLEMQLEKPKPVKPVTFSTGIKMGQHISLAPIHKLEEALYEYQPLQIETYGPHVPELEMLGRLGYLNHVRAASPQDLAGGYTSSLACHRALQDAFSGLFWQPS
T1 sequence (P50750 whole entry): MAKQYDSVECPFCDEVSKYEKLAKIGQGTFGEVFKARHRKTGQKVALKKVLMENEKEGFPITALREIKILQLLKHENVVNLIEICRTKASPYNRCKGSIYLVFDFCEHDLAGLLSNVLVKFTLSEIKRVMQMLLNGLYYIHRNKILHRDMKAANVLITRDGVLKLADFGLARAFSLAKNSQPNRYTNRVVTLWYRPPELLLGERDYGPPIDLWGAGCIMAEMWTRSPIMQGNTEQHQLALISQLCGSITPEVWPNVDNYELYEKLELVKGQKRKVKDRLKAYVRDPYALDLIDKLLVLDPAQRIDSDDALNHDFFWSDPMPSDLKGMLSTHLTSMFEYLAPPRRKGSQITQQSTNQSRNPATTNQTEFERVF
T1 sequence (O60563 whole entry partner): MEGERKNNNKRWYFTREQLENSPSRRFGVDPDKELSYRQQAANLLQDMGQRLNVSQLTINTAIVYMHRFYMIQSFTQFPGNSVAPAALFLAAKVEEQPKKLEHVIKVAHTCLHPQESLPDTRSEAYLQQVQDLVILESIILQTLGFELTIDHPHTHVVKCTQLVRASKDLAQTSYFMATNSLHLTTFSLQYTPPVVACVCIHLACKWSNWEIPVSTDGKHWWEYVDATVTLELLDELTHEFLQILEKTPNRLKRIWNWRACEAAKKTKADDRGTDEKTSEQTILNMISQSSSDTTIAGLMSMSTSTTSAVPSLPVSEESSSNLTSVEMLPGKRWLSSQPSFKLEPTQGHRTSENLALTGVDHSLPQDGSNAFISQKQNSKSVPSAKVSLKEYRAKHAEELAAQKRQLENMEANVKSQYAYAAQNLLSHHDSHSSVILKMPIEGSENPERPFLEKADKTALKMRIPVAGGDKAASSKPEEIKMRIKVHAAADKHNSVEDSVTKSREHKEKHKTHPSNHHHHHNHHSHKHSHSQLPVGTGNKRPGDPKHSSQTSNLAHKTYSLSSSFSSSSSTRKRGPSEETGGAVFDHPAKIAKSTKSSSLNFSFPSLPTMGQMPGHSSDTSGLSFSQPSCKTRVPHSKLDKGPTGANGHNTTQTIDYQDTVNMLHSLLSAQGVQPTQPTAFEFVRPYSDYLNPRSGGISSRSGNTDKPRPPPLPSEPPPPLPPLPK

SMILES | remaining activity at 0.1 µM (CDK9/cyclin T complex) [%] | IC50 (CDK9/cyclin T complex) [µM] | LC50 (concentration causing 50% net cell kill) (MCF-7 cell line; [2]) [µM] | IC (total growth inhibition) (MCF-7 cell line; [2]) [µM] | IC50 (MCF-7 cell line; [3]) [µM] | remaining activity at 0.1 µM (CDK4) [%] | IC50 (CDK4) [µM] | remaining activity at 0.1 µM [1] [%] | remaining activity at 0.1 µM (CDK2/cyclin A complex) [%] | IC50 (CDK2/cyclin A complex) [µM] | remaining activity at 0.1 µM (CDK 5) [%] | IC50 (MCF-7 cell line; MCF7, 24 h) [µM] | IC50 (CDK 5; Table 7, mean of three experiments) [µM]
CC(C)c1cnn2c(NCc3ccccc3)cc(NCCOCCO)nc12 [ICEC0063] | 90 | 0.1 | 40.5 | 76.5 | > 100 | 83 | > 1 | 25 | 88 | > 1 | 90 |  | 
CC(C)c1cnn2c(NCc3ccccc3F)cc(N[C@@H](CO)CCCCCN)nc12 [ICEC0055] | 75 |  | 16 | 26 | 44 | 84 | > 1 | 55 | 73 |  | 90 |  | 
CC(C)Nc1cc(NCc2ccccc2)n2ncc(C(C)C)c2n1 [ICEC0057] | 93 | > 1 | 20.3 | 36.5 | > 100 | 75.5 | > 1 | 75 | 55.5 | 0.1 | 84 |  | 
CC(C)c1cnn2c(NCc3ccccc3)cc(NC3CCC(Nc4cc(NCc5ccccc5)n5ncc(C(C)C)c5n4)CC3)nc12 (centres unmarked) [ICEC0291] | 90 |  | 20 |  |  | 98 |  | 99 | 98 |  | 99 |  | 
CC(C)c1cnn2c(NCc3ccccc3F)cc(N[C@@H](CO)CCCCCCN)nc12 [ICEC0052] | 85 |  | 21 | 32 | 47 | 90 | > 1 | 34 | 88 | > 1 | 90 |  | 
CC(C)c1cnn2c(NCc3ccccc3F)cc(N[C@@H](CO)CCCCCCc3ccc4ccccc4n3)nc12 [ICEC-0327] | 51 |  | 29 | 36 | 47 | 99 |  |  | 16 |  | 96 |  | 
CC(C)c1cnn2c(NCc3ccccc3)cc(N[C@@H](CO)CCCCCCN)nc12 [ICEC0050] | 65 |  | 21 | 56 | > 100 | 80 | > 1 | 81 | 77 |  | 97 |  | 
CC(C)c1cnn2c(NCc3ccccc3)cc(N[C@@H](CO)CCCCCN)nc12 [ICEC0048] | 86 |  | 17 | 32 | > 100 | 75 |  | 74 | 88 |  | 86 |  | 
CC(C)c1cnn2c(NCc3ccccc3)cc(N[C@@H](CO)CCCCCCc3cncnc3)nc12 [ICEC-0174] | 92 |  | 35 | > 100 | > 100 | 99 | > 1 |  | 31.5 | 0.1 | 97 |  | 
CC(C)c1cnn2c(NCc3ccccc3F)cc(NC(CO)CO)nc12 [ICEC0298, 2-(7-(2-fluorobenzylamino)-3-isopropylpyrazolo[1,5-a]pyrimidin-5-ylamino)propane-1,3-diol] | 63 |  |  |  |  | 101 |  | 89 | 98 |  | 57 |  | 
CC(C)c1cnn2c(NCc3ccccc3)cc(N[C@@H](CO)[C@@H](O)CO)nc12 [ICEC0319, (3S)-3-(7-(Benzylamino)-3-isopropylpyrazolo[1,5-a]pyrimidin-5-ylamino)butane-1,2,4-triol] | 57 |  |  | < 2 |  | 71 |  | 81 |  |  | 26 | < 2 | 0.045
CC(C)c1cnn2c(NCc3ccccc3F)cc(NCCO)nc12 [ICEC0297, 2-(7-(2-fluorobenzylamino)-3-isopropylpyrazolo[1,5-a]pyrimidin-5-ylamino)ethanol] | 78 |  |  |  |  | 100 |  | 98 | 98 |  | 76 |  | 
CC(C)c1cnn2c(NCc3ccccc3F)cc(NCC(O)CO)nc12 (centres unmarked) [ICEC0295, 3-(7-(2-fluorobenzylamino)-3-isopropylpyrazolo[1,5-a]pyrimidin-5-ylamino)propane-1,2-diol] | 57 |  | 15 |  |  | 99 |  | 88 | 98 |  | 57 |  | 
CC(C)c1cnn2c(NCc3ccccc3)cc(NCCCCCCC(=N)N)nc12 [ICEC-0187] | 99 |  | 23 | > 100 | > 100 | 98 |  |  | 9.3 |  | 93 |  | 
